In ChEMBL document CHEMBL1129064, “Design and synthesis of 2',3'-dideoxy-2',3'-didehydro-beta-L-cytidine (beta-L-d4C) and 2',3'-dideoxy 2',3'-didehydro-beta-L-5-fluorocytidine (beta-L-Fd4C), two exceptionally potent inhibitors of human hepatitis B virus (HBV) and potent inhibitors of human immunodeficiency virus (HIV) in vitro” (1996):

Legend:
Format in all cases: functional
Conditions in all cases: Homo sapiens, read-out: ED50 (the source's name)
[1] = test system: HepG2; assay: Concentration required to inhibit 50% of intracellular circular replication of HBV DNA using 2215 cell line
[2] = test system: MT2; assay: Concentration required to inhibit 50% of HIV activity in MT-2 cells
[3] = test system: CCRF-CEM; assay: In vitro concentration required to decrease 50% of mitochondrial DNA content in CEM cells
[4] = test system: HepG2; assay: Concentration required to inhibit 50% of extracellular circular replication of HBV DNA using 2215 cell line
[5] = test system: CCRF-CEM; assay: In vitro concentration required to inhibit 50% of CEM cell growth

EC50 [1] [nM] | EC50 [2] [nM] | EC50 [3] [µM] | EC50 [4] [nM] | EC50 [5] [µM] | SMILES
8 | 1000 | > 20 | 10 | 20 | Nc1ccn([C@H]2C=C[C@@H](CO)O2)c(=O)n1
– | 700 | 2 | 3000 | 22 | Nc1ccn([C@@H]2C=C[C@H](CO)O2)c(=O)n1
2 | 90 | > 100 | 2 | 7 | Nc1nc(=O)n([C@@H]2C=C[C@H](CO)O2)cc1F [ELVUCITABINE]
30 | 2000 | > 50 | 17 | 50 | Nc1nc(=O)n([C@@H]2CS[C@H](CO)O2)cc1F [EMTRICITABINE]

SMILES | EC50 [1] [nM] | EC50 [2] [nM] | EC50 [3] [µM] | EC50 [4] [nM] | EC50 [5] [µM]
Nc1ccn([C@@H]2CC[C@H](CO)O2)c(=O)n1 | 6200 | 1500 | 0.022 | 5200 | 10
Nc1nc(=O)n([C@@H]2CC[C@H](CO)O2)cc1F | 36 | 500 | > 100 | 55 | 67
